Legend:
[1] = target: human TLR2 (Homo sapiens (Human), UniProt O60603); test: human TLR2-specific NF-κB reporter gene assay (HEK-Blue cells); assay type: cell-based; details: for EC50: human TLR2-specific reporter gene assay, ND = no activity detected at 10 μM, read-out: TLR2-Agonistic Activity (EC50 in nM)
Excerpt: The induction of NF-κB in a TLR2-specific reporter gene assay was quantified using HEK-BLUE™ cells as previously described (Wu, W. et al., J. Med. Chem. 2010, 53, 3198-3213). HEK293 cells stably transfected with either human TLR2 or murine TLR2 and alkaline phosphatase (sAP) were obtained from InvivoGen (San Diego, Calif.), and were maintained in HEK-BLUE™ Selection medium containing zeocin and normocin. Stable expression of secreted alkaline phosphatase (sAP) under control of NF-κB promoters is inducible by TLR2 agonists, and extracellular sAP in the supernatant is proportional to NF-κB induction. HEK-Blue cells were incubated at a density of ˜10^5 cells/mL in a volume of 80 μL/well, in 384-well, flat-bottomed, cell culture-treated microtiter plates until confluency was achieved, and then stimulated with serially-diluted aliquots of compounds for 12 h. sAP was assayed spectrophoto-metrically using an alkaline phosphatase-specific chromogen (present in the HEK-detection medium as supplied by the vendor) at 620 nm. For antagonism assays, HEK-Blue cells were incubated at a density of ˜10^5 cells/mL in a volume of 80 μL/well and stimulated with either PAM2CS (1 μg/mL) or lipoteichoic acid (1 μg/mL) in the presence of graded concentrations of the test compounds as described for TLR7 previously (Shukla, N. M.; et al., Bioorg. Med. Chem. Lett. 2009, 19, 2211-2214; Shukla, N. M. et al., Bioorg. Med. Chem. 2011, 19, 3801-3811).

[2] = test system: anti-bovine α-lactalbumin IgG responses; test: Rabbit immunization with bovine α-lactalbumin, antigen-specific IgG ELISA; assay type: in vivo; details: rabbits, prime+single-boost model, FIG. 2
Experimental: All experiments were performed in accordance with institutional guidelines (University of Kansas IACUC permit #119-06) which specifically approved this study. All antigen/adjuvant preparations were entirely aqueous; no liposomal or emulsifying agents were used. Cohorts of adult female New Zealand White rabbits (n=4) were immunized intramuscularly in the flank region with (a) 100 μg of bovine α-lactalbumin in 0.2 mL saline, or (b) 100 μg of bovine α-lactalbumin plus 100 μg of compound 25 in 0.2 mL saline, or (d) 100 μg of bovine α-lactalbumin plus 100 μg of dual TLR2-agonistic PAM2CSK4 (control). Pre-immune test-bleeds were first obtained via venipuncture of the marginal vein of the ear. […] A final test-bleed was performed via the marginal vein of the ear on Day 38. Sera were stored at −80° C. until used.
Bovine α-lactalbumin-specific ELISAs were performed in 384-well format using automated liquid handling methods as described (Shukla, N. M. et al. Bioorg. Med. Chem. Lett. 2011, 21, 3232-3236). Examination of the affinity of antigen-specific IgG using chaotropic ELISA (Pullen, G. R. et al. J. Immunol. Methods 1986, 86, 83-87 and Macdonald, R. A. et al. J. Immunol. Methods 1988, 106, 191-194). […] Plates were then read at 450 nm using a SpectraMax M4 device (Molecular Devices, Sunnyvale, Calif.).

[3] = Aqueous solubility; assay type: physicochemical
[4] = Stability of aqueous stocks; assay type: physicochemical
[5] = target: TLR7 (Homo sapiens (Human), UniProt Q9NYK1); test: primary human TLR-specific reporter gene assay, TLR7 cell line; assay type: cell-based; details: relative to parent compounds
TLR7, sequence (Q9NYK1 27-1049): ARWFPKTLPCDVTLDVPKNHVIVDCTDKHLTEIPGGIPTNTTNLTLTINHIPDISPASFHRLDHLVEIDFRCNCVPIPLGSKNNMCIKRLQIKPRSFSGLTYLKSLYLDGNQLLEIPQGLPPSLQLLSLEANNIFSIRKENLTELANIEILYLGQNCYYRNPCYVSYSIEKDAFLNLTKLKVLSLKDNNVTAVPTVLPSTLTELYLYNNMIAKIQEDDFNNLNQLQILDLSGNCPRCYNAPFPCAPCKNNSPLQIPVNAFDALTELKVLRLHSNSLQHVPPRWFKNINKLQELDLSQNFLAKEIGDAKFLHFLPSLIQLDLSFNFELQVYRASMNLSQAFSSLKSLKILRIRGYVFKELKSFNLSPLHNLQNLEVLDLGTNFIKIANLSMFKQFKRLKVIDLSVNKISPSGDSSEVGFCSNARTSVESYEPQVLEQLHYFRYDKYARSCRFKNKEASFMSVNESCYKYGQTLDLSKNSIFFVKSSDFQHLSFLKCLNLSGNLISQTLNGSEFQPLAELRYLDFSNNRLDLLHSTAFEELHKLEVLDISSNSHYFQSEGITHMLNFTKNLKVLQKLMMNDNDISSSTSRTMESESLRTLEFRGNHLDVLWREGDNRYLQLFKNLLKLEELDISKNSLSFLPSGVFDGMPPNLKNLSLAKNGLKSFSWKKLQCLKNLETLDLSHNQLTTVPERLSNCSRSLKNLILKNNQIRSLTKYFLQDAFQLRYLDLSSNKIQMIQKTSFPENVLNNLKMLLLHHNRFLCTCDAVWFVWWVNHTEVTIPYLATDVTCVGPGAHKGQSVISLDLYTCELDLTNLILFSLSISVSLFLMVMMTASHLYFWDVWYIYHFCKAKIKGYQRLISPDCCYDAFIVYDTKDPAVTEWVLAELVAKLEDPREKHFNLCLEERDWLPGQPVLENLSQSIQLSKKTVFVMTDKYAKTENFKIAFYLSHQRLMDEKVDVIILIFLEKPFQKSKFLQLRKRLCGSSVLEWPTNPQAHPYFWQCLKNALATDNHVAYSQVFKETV

human TLR2, sequence (O60603 21-784): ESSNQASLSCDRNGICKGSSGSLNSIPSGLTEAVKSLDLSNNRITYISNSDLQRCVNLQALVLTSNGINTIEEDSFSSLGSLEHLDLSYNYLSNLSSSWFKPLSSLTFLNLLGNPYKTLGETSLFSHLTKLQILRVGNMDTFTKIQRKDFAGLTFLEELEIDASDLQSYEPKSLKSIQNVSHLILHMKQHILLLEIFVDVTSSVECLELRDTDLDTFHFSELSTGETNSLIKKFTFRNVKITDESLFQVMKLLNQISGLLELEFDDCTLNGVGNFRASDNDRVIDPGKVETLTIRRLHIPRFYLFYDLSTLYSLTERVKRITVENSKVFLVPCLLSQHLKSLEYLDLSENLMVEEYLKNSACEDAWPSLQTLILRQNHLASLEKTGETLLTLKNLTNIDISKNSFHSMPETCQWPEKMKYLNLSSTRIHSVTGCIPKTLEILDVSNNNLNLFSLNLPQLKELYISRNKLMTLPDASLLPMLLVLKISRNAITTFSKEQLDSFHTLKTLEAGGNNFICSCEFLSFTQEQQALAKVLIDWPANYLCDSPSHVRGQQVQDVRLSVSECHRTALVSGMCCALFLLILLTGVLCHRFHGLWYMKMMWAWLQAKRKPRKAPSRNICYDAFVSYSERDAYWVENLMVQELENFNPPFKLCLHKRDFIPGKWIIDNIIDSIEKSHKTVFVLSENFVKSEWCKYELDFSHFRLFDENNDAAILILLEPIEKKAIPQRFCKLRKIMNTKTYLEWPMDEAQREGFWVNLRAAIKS

Row | SMILES | EC50 [1] [nM] | induction of anti-bovine α-lactalbumin IgG responses [2] | water solubility [3] | stability of aqueous stocks [4] | hTLR2-agonistic activity in words ([1]; hTLR2 reporter gene assay) | activity in TLR7 cell line [5]
1 | CCCCCCCCCCCCCCCC(=O)OCCSC[C@H](NC(C)=O)C(=O)N[C@@H](COC(=O)[C@@H](N)CCCCN)C(=O)OC.Cl.Cl [Compound 25, 2-(((R)-2-Acetamido-3-(((S)-3-(((S)-2,6-diaminohexanoyl)oxy)-1-methoxy-1-oxopropan-2-yl)amino)-3-oxopropyl)thio)ethyl palmitate] | 6.81 | excellent induction | exceptionally water soluble | unstable |  | 
2 | CCCCCCCCCCCCCCCCOC(=O)NCCSC[C@H](NC(C)=O)C(=O)N[C@@H](CO)C(=O)NCc1ccc(Cn2c(CCCC)nc3c(N)nc4ccccc4c32)cc1 [Compound 54, Hexadecyl(2-(((R)-2-acetamido-3-(((S)-1-((4-((4-amino-2-butyl-1H-imidazo[4,5-c]quinolin-1-yl)methyl)benzyl)amino)-3-hydroxy-1-oxopropan-2-yl)amino)-3-oxopropyl)thio)ethyl)carbamate] | 221 |  |  |  | less active than their parent compounds | less active than their parent compounds

— patent US9676818B2, “Toll-like receptor 2-agonistic lipopeptides, and method of making the same” (University of Kansas, priority 2013, dated 2017)
